Laboratory results as given in publication PMC9265729, “A Genetic Toxicology Study of the Rapid Detection of Nitrosamine Compounds by the rpsL Gene Mutation Assay” (Foods, 2022).
Several values for one entry are separate records, joined by “and”; a condition that tells them apart may be missing. Equal entries are not always repeated.

What was measured:
rpsL gene [1] = test: rpsL gene mutation rate at the cellular level (E. coli MF101 + pMOL21 cultured with mutagen, Amp/Str plate selection); conditions: for Mutation Rate of rpsL (mean ± SD): E. coli MF101 + pMOL21, mean of 4 experiments; for Mutation Rate of rpsL (single experiment): E. coli MF101 + pMOL21, single replicate; for genotoxicity / mutagenicity in words: NDEA, NDPA at 10 ppm, EB at lower concentrations
Protocol: The mutagenicity detection of nitrosamine compounds was carried out using the rpsL gene on plasmid pMOL21 as a selectable marker. The ribosomal protein S12 encoded by the rpsL gene can form a complex with streptomycin and enhance the ability of streptomycin to bind to 16 S rRNA, thereby preventing the initiation of […]. When the rpsL gene is mutated, the interaction between 16 S rRNA and streptomycin is disrupted, resulting in cell resistance to streptomycin.
We adopted Escherichia coli MF101, whose rpsL gene is mutated, so this strain has streptomycin resistance. The plasmid pMOL21 contains ampicillin as a selection marker and the correct rpsL gene. […] For specific information on strains and plasmids, please refer to [14].
E. coli MF101 + pMOL21 were cultured with different concentrations (10 ppm, 100 ppm, or 1000 ppm) of NDEA or NDPA. Ten hours after growth, the strains were collected and spread on plates containing ampicillin (Amp^+, 50 μg/mL) to determine the total number of transformed cells and spread on plates containing ampicillin and streptomycin (Amp^+, Str^+, 50 μg/mL) to determine the number of colonies with rpsL gene mutations. The mutation rate is the ratio of the number of mutant colonies to the total number of colonies. […] The experimental data and images were statistically analyzed by Origin2018 software.

rpsL gene [2] = test: rpsL gene mutation rate in the PCR amplification system (Pfu DNA polymerase, mutagen added directly to the PCR system); assay type: biochemical, Escherichia coli; conditions: for Mutation Rate of rpsL in PCR (mean ± SD): mean of 4 experiments; for Mutation Rate of rpsL in PCR (single experiment): single replicate
Protocol: The PCR system was as follows: 10 × PCR buffer (Mg^2+) 5 μL, dNTP 2 μL, pMOL21 plasmid template 1 μL, upstream and downstream primers 1 μL, Pfu DNA polymerase 0.5 μL, ddH2O supplemented to […] (nitrosamine compounds were directly added to the PCR system).
The PCR program was as follows: predenaturation at 95 °C for 5 min, denaturation at 94 °C for 30 s, annealing at 55 °C for 30 s, extension at 72 °C for 120 s, 25 cycles, full extension at 72 °C for 10 min, and storage at 16 °C.
The PCR products were recovered and ligated with restriction enzymes (MscI, BamH1), transformed into MF101 strains, plated on ampicillin-containing plates to determine the total number of transformed cells, and plated on ampicillin- and streptomycin-containing plates to identify rpsL gene-mutated colonies.
We measured the mutation rate of mutagen-induced rpsL gene mutations in the PCR system. The mutagen was added directly to the PCR system to determine the mutation rate of the rpsL gene during DNA amplification.

rpsL gene [3] = test: rpsL gene mutation rate in the RCA reaction system (phi29 DNA polymerase, mutagen added to the amplification reaction); assay type: biochemical, Escherichia coli; conditions: for Mutation Rate of rpsL in the RCA reaction (mean ± SD): mean of 4 experiments; for Mutation Rate of rpsL in the RCA reaction (single experiment): single replicate
Protocol: Heat denaturation of samples and annealing reaction system of primers and plasmids: 1 μL of 10 × phi29 DNA polymerase reaction buffer, 2.5 μL of 100 μM random primers, 1 μL of plasmid pMOL21 to be amplified, and 4.3 μL of ddH2O. The above system was heated at 95 °C for 3 min and then placed on ice for 15 min.
Amplification reaction system: 10 mM dNTP 0.5 μL, 100 × BSA 0.2 μL, phi29 DNA polymerase 0.5 μL to the above reaction solution (nitrosamine compounds or EB are added to the amplification reaction system), and then incubated at 30 °C overnight.
Heat-inactivated phi29 DNA polymerase: heat at 65 °C for 10 min.
We then determined the mutation rate of mutagen-induced rpsL gene mutations in the RCA system. In this experiment, we adopted the method of directly adding a mutagen to the RCA amplification reaction solution to provide a direct mutagenic environment for the amplification of the rpsL gene. This method avoids the possibility of affecting the mutagenicity of NDEA, NDPA, or EB during thermal denaturation.

[4] = 100 ppm mutagen in RCA reaction
[5] = 1000 ppm mutagen in RCA reaction

| SMILES | Mutation Rate of rpsL (mean ± SD) (rpsL gene [1]; 10 ppm mutagen) | Mutation Rate of rpsL (single experiment) (rpsL gene [1]; 10 ppm mutagen) | Mutation Rate of rpsL (mean ± SD) (rpsL gene [1]; 100 ppm mutagen) | Mutation Rate of rpsL (single experiment) (rpsL gene [1]; 100 ppm mutagen) | Mutation Rate of rpsL (mean ± SD) (rpsL gene [1]; 1000 ppm mutagen) | Mutation Rate of rpsL (single experiment) (rpsL gene [1]; 1000 ppm mutagen) | genotoxicity / mutagenicity in words (rpsL gene [1]) | Mutation Rate of rpsL in PCR (mean ± SD) (rpsL gene [2]; 10 ppm mutagen in PCR system) | Mutation Rate of rpsL in PCR (single experiment) (rpsL gene [2]; 10 ppm mutagen in PCR system) | Mutation Rate of rpsL in PCR (mean ± SD) (rpsL gene [2]; 100 ppm mutagen in PCR system) | Mutation Rate of rpsL in PCR (single experiment) (rpsL gene [2]; 100 ppm mutagen in PCR system) | Mutation Rate of rpsL in PCR (mean ± SD) (rpsL gene [2]; 1000 ppm mutagen in PCR system) | Mutation Rate of rpsL in PCR (single experiment) (rpsL gene [2]; 1000 ppm mutagen in PCR system) | Mutation Rate of rpsL in the RCA reaction (mean ± SD) (rpsL gene [3]; 10 ppm mutagen in RCA reaction) | Mutation Rate of rpsL in the RCA reaction (single experiment) (rpsL gene [3]; 10 ppm mutagen in RCA reaction) | Mutation Rate of rpsL in the RCA reaction (mean ± SD) (rpsL gene [3]; [4]) | Mutation Rate of rpsL in the RCA reaction (single experiment) (rpsL gene [3]; [4]) | Mutation Rate of rpsL in the RCA reaction (mean ± SD) (rpsL gene [3]; [5]) | Mutation Rate of rpsL in the RCA reaction (single experiment) (rpsL gene [3]; [5]) |
| --- | --- | --- | --- | --- | --- | --- | --- | --- | --- | --- | --- | --- | --- | --- | --- | --- | --- | --- | --- |
| CCCN(CCC)N=O [NDPA, N-dipropylnitrosamine] | 2.67 10^−6 and 2.67 ± 0.909 10^−6 | 2.34 10^−6 and 1.70 10^−6 and 2.80 10^−6 and 3.86 10^−6 | 4.75 10^−6 and 4.75 ± 1.417 10^−6 | 5.72 10^−6 and 2.66 10^−6 and 5.09 10^−6 and 5.53 10^−6 | 5.14 10^−6 and 5.14 ± 1.433 10^−6 | 7.05 10^−6 and 4.20 10^−6 and 5.41 10^−6 and 3.89 10^−6 | high genotoxicity | 2.93 10^−6 and 2.93 ± 1.430 10^−6 | 1.83 10^−6 and 1.92 10^−6 and 3.05 10^−6 and 4.91 10^−6 | 4.98 10^−6 and 4.98 ± 1.330 10^−6 | 6.16 10^−6 and 3.08 10^−6 and 5.45 10^−6 and 5.21 10^−6 | 6.85 10^−6 and 6.85 ± 1.316 10^−6 | 7.72 10^−6 and 8.12 10^−6 and 6.32 10^−6 and 5.25 10^−6 | 2.98 10^−6 and 2.98 ± 0.585 10^−6 | 2.18 10^−6 and 3.59 10^−6 and 3.05 10^−6 and 3.10 10^−6 | 5.59 10^−6 and 5.59 ± 2.287 10^−6 | 4.90 10^−6 and 3.85 10^−6 and 8.96 10^−6 and 4.67 10^−6 | 6.2 10^−6 and 6.20 ± 1.110 10^−6 | 7.78 10^−6 and 5.18 10^−6 and 5.96 10^−6 and 5.87 10^−6 |
| CC[n+]1c(-c2ccccc2)c2cc(N)ccc2c2ccc(N)cc21 [EB, ethidium bromide, reference compound] | 3.71 10^−6 and 3.71 ± 0.502 10^−6 | 3.65 10^−6 and 4.38 10^−6 and 3.64 10^−6 and 3.16 10^−6 | 5.78 10^−6 and 5.78 ± 0.728 10^−6 | 6.50 10^−6 and 6.05 10^−6 and 4.78 10^−6 and 5.79 10^−6 | 7.87 10^−6 and 7.87 ± 1.842 10^−6 | 9.82 10^−6 and 6.71 10^−6 and 5.94 10^−6 and 9.01 10^−6 | strong mutagenicity | 4.06 10^−6 and 4.06 ± 0.471 10^−6 | 4.23 10^−6 and 4.47 10^−6 and 4.15 10^−6 and 3.38 10^−6 | 6.01 10^−6 and 6.01 ± 1.319 10^−6 | 5.99 10^−6 and 7.69 10^−6 and 4.47 10^−6 and 5.88 10^−6 | 10.35 10^−6 and 10.35 ± 1.143 10^−6 | 11.98 10^−6 and 9.32 10^−6 and 10.15 10^−6 and 9.94 10^−6 | 3.81 10^−6 and 3.81 ± 0.335 10^−6 | 3.62 10^−6 and 4.31 10^−6 and 3.69 10^−6 | 6.38 10^−6 and 6.38 ± 0.915 10^−6 | 7.26 10^−6 and 6.66 10^−6 and 5.10 10^−6 and 6.49 10^−6 | 7.35 10^−6 and 7.35 ± 2.615 10^−6 | 6.86 10^−6 and 4.07 10^−6 and 10.34 10^−6 and 8.11 10^−6 |
| CCN(CC)N=O [NDEA, N-diethylnitrosamine] | 2.42 10^−6 and 2.42 ± 0.717 10^−6 | 1.44 10^−6 and 2.34 10^−6 and 2.95 10^−6 and 2.96 10^−6 | 3.76 10^−6 and 3.76 ± 0.852 10^−6 | 3.32 10^−6 and 2.81 10^−6 and 4.23 10^−6 and 4.69 10^−6 | 4.82 10^−6 and 4.82 ± 1.738 10^−6 | 2.89 10^−6 and 3.85 10^−6 and 6.02 10^−6 and 6.54 10^−6 | high genotoxicity | 2.83 10^−6 and 2.83 ± 1.197 10^−6 | 1.28 10^−6 and 2.65 10^−6 and 4.11 10^−6 and 3.30 10^−6 | 4.51 10^−6 and 4.51 ± 1.314 10^−6 | 3.70 10^−6 and 3.09 10^−6 and 5.47 10^−6 and 5.77 10^−6 | 5.02 10^−6 and 5.02 ± 1.890 10^−6 | 3.16 10^−6 and 3.68 10^−6 and 6.23 10^−6 and 7.03 10^−6 | 2.49 10^−6 and 2.49 ± 0.692 10^−6 | 1.79 10^−6 and 2.02 10^−6 and 3.20 10^−6 and 2.96 10^−6 | 3.62 10^−6 and 3.62 ± 0.316 10^−6 | 3.47 10^−6 and 3.38 10^−6 and 3.55 10^−6 and 4.08 10^−6 | 5.54 10^−6 and 5.54 ± 2.444 10^−6 | 3.14 10^−6 and 3.96 10^−6 and 6.59 10^−6 and 8.46 10^−6 |
